Literature values as cited in patent publication US4093713A, “Dipeptide derivatives with central nervous system activity and preparation thereof” (Ayerst McKenna & Harrison Ltd., priority 1977, dated 1978).
Like-named read-outs stand apart in the source and are kept apart here.

Legend:
[1] = test system: behavioral effects of L-DOPA; conditions: literature: Plotnikoff 1971, Friedman 1973
effects of oxotremorin = conditions: literature: Plotnikoff 1972
[2] = test system: sedative effects of deserpidine; conditions: mice; literature: Plotnikoff
[3] = test system: sedative effects of deserpidine; conditions: monkeys; literature: Plotnikoff
[4] = in vivo

duration of action [4]: short duration of action
Substance: H-L-prolyl-L-leucyl-glycinamide [H-Pro-Leu-Gly-NH2]
potentiation of the behavioral effects of L-DOPA [1]: potentiates the behavioral effects of (3,4-dihydroxyphenyl)-L-alanine (L-DOPA)
antagonism of the effects of oxotremorin (effects of oxotremorin): antagonizes the effects of oxotremorin
reversal of the sedative effects of deserpidine [2]: reverses the sedative effects of deserpidine
reversal of the sedative effects of deserpidine [3]: reverses the sedative effects of deserpidine
first step in the inactivation [4]: proteolytic cleavage of the Pro-Leu bond with formation of proline and leucyl-glycinamide
